# Experimental data reported in publication PMC5844530, “Fosmetpantotenate (RE-024), a phosphopantothenate replacement therapy for pantothenate kinase-associated neurodegeneration: Mechanism of action and efficacy in nonclinical models” (PLoS ONE, 2018).
# Several values for one entry are separate records, joined by “and”; a condition that tells them apart may be missing. Equal entries are not always repeated.
# Columns and labels:
# [1] = Pharmacokinetics in whole blood, cynomolgus monkeys
# [2] = Pharmacokinetics in whole blood, CD-1 mice; conditions: for % Parent AUCAll: CD1 mouse, metabolite AUCall/Parent AUCall x 100; for Compound 1 Whole Blood Conc.: CD-1 mice, individual animals
# Procedure: The whole blood samples (0.5 mL) were collected into syringes that were prefilled with 2.5 mL of ice-cold 0.1% formic acid in acetonitrile. The volume ratio of the whole blood to 0.1% formic acid in acetonitrile was 1/5 (v/v). Samples were frozen (-70°C) until analyzed by LC-MS/MS.
# Standard curves and quality control (QC) samples were prepared fresh on the day of analysis by serial dilution of the standard mixture in quenched whole blood (1 part of blood to 5 parts of 0.1% formic acid in acetonitrile) and centrifuged. […] The frozen study samples were thawed in an ice/water bath and centrifuged. Supernatant (50 μL) from standards, QC samples, and study samples was transferred to a 96-well plate and dried completely under nitrogen. The dried residues were reconstituted with 100 μL of 0.1% formic acid in water containing internal standard (5 ng/mL of ^15N/^13C3-RE-024-02) and analyzed by LC-MS/MS.
# LC-MS/MS analysis for blood pharmacokinetic samples: Samples were analyzed using an Agilent 1100 binary pump (Agilent Technologies, Santa Clara, CA, USA), connected to an AB Sciex API 6500 mass spectrometer (SCIEX, Framingham, MA, USA). An electrospray ionization source was used, scanning in the positive mode. […] The chromatography column was a Varian Metasil AQ 120–5 C18 column, 5 μm, 50 x 2.00 mm (Part No. A0530050X020) at ambient temperature, with a 0.5 mL/min flow rate and a 20 μL injection volume. Mobile phase (A) consisted of 0.1% formic acid in water; while mobile phase (B) consisted of 0.1% formic acid in acetonitrile:water (9:1, v/v).
# Quantitation of in vivo samples: Peak areas were integrated using Analyst software (AB Sciex, Concord, Ontario, Canada). […] Calibration standards (at a minimum 7 per curve) were fit by linear regression with (1/x^2) weighting. QC samples were used (triplicate) at 3 concentrations for all tandem mass spectrometry (MS/MS) runs.
# Pharmacokinetic calculations: PK analysis was performed using Phoenix WinNonlin®, Build 6.3.0.395 (Certara, Princeton, NJ, USA) using a non-compartmental model (PO dose = model 200 for extravascular dosing). […] Post-dose concentrations below the limit of quantitation (BLQ) were omitted from calculation.
structure (smiles),measurement,setting,value
COC(=O)CCNC(=O)[C@@H]1OP(=O)(N[C@@H](C)C(=O)OC)OCC1(C)C (some centres unmarked) [Compound 1],% Parent AUCAll,"[1]; Cynomolgus monkey, 300 mg/kg PO, metabolite AUCall/Parent AUCall x 100",19%
same,concentration at 0.083 h,"[1]; cynomolgus monkey, in vivo, po, 300 mg/kg, Concentration of compound 1 in whole blood, cynomolgus monkeys, single oral 300 mg/kg fosmetpantotenate, 0.083 hr, sum of diastereomers, LLOQ 1.58 nM",17.2 nM
same,concentration at 0.5 h,"[1]; cynomolgus monkey, in vivo, po, 300 mg/kg, Concentration of compound 1 in whole blood, cynomolgus monkeys, single oral 300 mg/kg fosmetpantotenate, 0.5 hr, sum of diastereomers, LLOQ 1.58 nM",2480 nM
same,concentration at 4 h,"[1]; cynomolgus monkey, in vivo, po, 300 mg/kg, Concentration of compound 1 in whole blood, cynomolgus monkeys, single oral 300 mg/kg fosmetpantotenate, 4 hr, sum of diastereomers, LLOQ 1.58 nM",54.6 nM
same,concentration at 8 h,"[1]; cynomolgus monkey, in vivo, po, 300 mg/kg, Concentration of compound 1 in whole blood, cynomolgus monkeys, single oral 300 mg/kg fosmetpantotenate, 8 hr, sum of diastereomers, LLOQ 1.58 nM",7.89 nM
same,Concentration of compound 1 in whole blood,"[1]; cynomolgus monkeys, single oral 300 mg/kg fosmetpantotenate, 0.083 hr, sum of diastereomers, LLOQ 1.58 nM, 300 mg/kg",11.28 nM
same,Concentration of compound 1 in whole blood,"[1]; cynomolgus monkeys, single oral 300 mg/kg fosmetpantotenate, 0.5 hr, sum of diastereomers, LLOQ 1.58 nM, 300 mg/kg",3160.36 nM
same,Concentration of compound 1 in whole blood,"[1]; cynomolgus monkeys, single oral 300 mg/kg fosmetpantotenate, 4 hr, sum of diastereomers, LLOQ 1.58 nM, 300 mg/kg",96.23 nM
same,Concentration of compound 1 in whole blood,"[1]; cynomolgus monkeys, single oral 300 mg/kg fosmetpantotenate, 8 hr, sum of diastereomers, LLOQ 1.58 nM, 300 mg/kg",4.57 nM
same,% Parent AUCAll,[2]; 100 mg/kg PO,129%
same,% Parent AUCAll,[2]; 300 mg/kg PO,307%
same,% Parent AUCAll,[2]; 700 mg/kg PO,257%
same,Compound 1 Whole Blood Conc.,"[2]; 100 mg/kg RE-024-02 by PO, 0.033 hr, LLOQ 0.6 ng/mL, 100 mg/kg",4.6 ng/mL and 4 ng/mL and 74.4 ng/mL and 3.2 ng/mL
same,Compound 1 Whole Blood Conc.,"[2]; 100 mg/kg RE-024-02 by PO, 0.033 hr, LLOQ 1.6 nM, 100 mg/kg",12.2 nM and 10.6 nM and 195.6 nM and 8.4 nM
same,Compound 1 Whole Blood Conc.,"[2]; 100 mg/kg RE-024-02 by PO, 0.083 hr, LLOQ 0.6 ng/mL, 100 mg/kg",BQL and 1 ng/mL
same,Compound 1 Whole Blood Conc.,"[2]; 100 mg/kg RE-024-02 by PO, 0.083 hr, LLOQ 1.6 nM, 100 mg/kg",BQL and 2.7 nM
same,Compound 1 Whole Blood Conc.,"[2]; 100 mg/kg RE-024-02 by PO, 0.167 hr, LLOQ 0.6 ng/mL, 100 mg/kg",4.3 ng/mL and BQL and 10.8 ng/mL
same,Compound 1 Whole Blood Conc.,"[2]; 100 mg/kg RE-024-02 by PO, 0.167 hr, LLOQ 1.6 nM, 100 mg/kg",11.4 nM and BQL and 28.4 nM
same,Compound 1 Whole Blood Conc.,"[2]; 100 mg/kg RE-024-02 by PO, 0.333 hr, LLOQ 0.6 ng/mL, 100 mg/kg",BQL
same,Compound 1 Whole Blood Conc.,"[2]; 100 mg/kg RE-024-02 by PO, 0.333 hr, LLOQ 1.6 nM, 100 mg/kg",BQL
same,Compound 1 Whole Blood Conc.,"[2]; 100 mg/kg RE-024-02 by PO, 0.5 hr, LLOQ 0.6 ng/mL",BQL
same,Compound 1 Whole Blood Conc.,"[2]; 100 mg/kg RE-024-02 by PO, 0.5 hr, LLOQ 1.6 nM",BQL
same,Compound 1 Whole Blood Conc.,"[2]; 100 mg/kg RE-024-02 by PO, 1 hr, LLOQ 0.6 ng/mL",BQL
same,Compound 1 Whole Blood Conc.,"[2]; 100 mg/kg RE-024-02 by PO, 1 hr, LLOQ 1.6 nM",BQL
same,Compound 1 Whole Blood Conc.,"[2]; 100 mg/kg RE-024-02 by PO, 2 hr, LLOQ 0.6 ng/mL",BQL
same,Compound 1 Whole Blood Conc.,"[2]; 100 mg/kg RE-024-02 by PO, 2 hr, LLOQ 1.6 nM",BQL
same,Compound 1 Whole Blood Conc.,"[2]; 100 mg/kg RE-024-02 by PO, 4 hr, LLOQ 0.6 ng/mL",BQL
same,Compound 1 Whole Blood Conc.,"[2]; 100 mg/kg RE-024-02 by PO, 4 hr, LLOQ 1.6 nM",BQL
same,Compound 1 Whole Blood Conc.,"[2]; 100 mg/kg RE-024-02 by PO, 8 hr, LLOQ 0.6 ng/mL",BQL
same,Compound 1 Whole Blood Conc.,"[2]; 100 mg/kg RE-024-02 by PO, 8 hr, LLOQ 1.6 nM",BQL
same,Compound 1 Whole Blood Conc.,"[2]; 300 mg/kg RE-024-02 by PO, 0.033 hr, LLOQ 0.6 ng/mL, 300 mg/kg",8.7 ng/mL and 70.8 ng/mL and 52.7 ng/mL and 7.2 ng/mL
same,Compound 1 Whole Blood Conc.,"[2]; 300 mg/kg RE-024-02 by PO, 0.033 hr, LLOQ 1.6 nM, 300 mg/kg",22.9 nM and 186.2 nM and 138.7 nM and 18.9 nM
same,Compound 1 Whole Blood Conc.,"[2]; 300 mg/kg RE-024-02 by PO, 0.083 hr, LLOQ 0.6 ng/mL, 300 mg/kg",1.6 ng/mL and BQL and 16.9 ng/mL
same,Compound 1 Whole Blood Conc.,"[2]; 300 mg/kg RE-024-02 by PO, 0.083 hr, LLOQ 1.6 nM, 300 mg/kg",4.2 nM and BQL and 44.3 nM
same,Compound 1 Whole Blood Conc.,"[2]; 300 mg/kg RE-024-02 by PO, 0.167 hr, LLOQ 0.6 ng/mL, 300 mg/kg",21.9 ng/mL and 24.1 ng/mL and 53.3 ng/mL and 17.7 ng/mL
same,Compound 1 Whole Blood Conc.,"[2]; 300 mg/kg RE-024-02 by PO, 0.167 hr, LLOQ 1.6 nM, 300 mg/kg",57.6 nM and 63.3 nM and 140.1 nM and 46.5 nM
same,Compound 1 Whole Blood Conc.,"[2]; 300 mg/kg RE-024-02 by PO, 0.333 hr, LLOQ 0.6 ng/mL, 300 mg/kg",2.4 ng/mL and 4.3 ng/mL and 3.8 ng/mL and 1.5 ng/mL
same,Compound 1 Whole Blood Conc.,"[2]; 300 mg/kg RE-024-02 by PO, 0.333 hr, LLOQ 1.6 nM, 300 mg/kg",6.2 nM and 11.3 nM and 10 nM and 3.9 nM
same,Compound 1 Whole Blood Conc.,"[2]; 300 mg/kg RE-024-02 by PO, 0.5 hr, LLOQ 0.6 ng/mL, 300 mg/kg",4.4 ng/mL and 4.5 ng/mL and 2.8 ng/mL
same,Compound 1 Whole Blood Conc.,"[2]; 300 mg/kg RE-024-02 by PO, 0.5 hr, LLOQ 1.6 nM, 300 mg/kg",11.5 nM and 11.9 nM and 7.4 nM
same,Compound 1 Whole Blood Conc.,"[2]; 300 mg/kg RE-024-02 by PO, 1 hr, LLOQ 0.6 ng/mL, 300 mg/kg",BQL
same,Compound 1 Whole Blood Conc.,"[2]; 300 mg/kg RE-024-02 by PO, 1 hr, LLOQ 1.6 nM, 300 mg/kg",BQL
same,Compound 1 Whole Blood Conc.,"[2]; 300 mg/kg RE-024-02 by PO, 2 hr, LLOQ 0.6 ng/mL",BQL
same,Compound 1 Whole Blood Conc.,"[2]; 300 mg/kg RE-024-02 by PO, 2 hr, LLOQ 1.6 nM",BQL
same,Compound 1 Whole Blood Conc.,"[2]; 300 mg/kg RE-024-02 by PO, 4 hr, LLOQ 0.6 ng/mL",BQL
same,Compound 1 Whole Blood Conc.,"[2]; 300 mg/kg RE-024-02 by PO, 4 hr, LLOQ 1.6 nM",BQL
same,Compound 1 Whole Blood Conc.,"[2]; 300 mg/kg RE-024-02 by PO, 8 hr, LLOQ 0.6 ng/mL",BQL
same,Compound 1 Whole Blood Conc.,"[2]; 300 mg/kg RE-024-02 by PO, 8 hr, LLOQ 1.6 nM",BQL
same,Compound 1 Whole Blood Conc.,"[2]; 700 mg/kg RE-024-02 by PO, 0.033 hr, LLOQ 0.6 ng/mL, 700 mg/kg",22.6 ng/mL and 66.6 ng/mL and 198 ng/mL and 119.4 ng/mL
same,Compound 1 Whole Blood Conc.,"[2]; 700 mg/kg RE-024-02 by PO, 0.033 hr, LLOQ 1.6 nM, 700 mg/kg",59.3 nM and 175.1 nM and 520.6 nM and 313.9 nM
same,Compound 1 Whole Blood Conc.,"[2]; 700 mg/kg RE-024-02 by PO, 0.083 hr, LLOQ 0.6 ng/mL, 700 mg/kg",165 ng/mL and 2.2 ng/mL and 624 ng/mL and 75 ng/mL
same,Compound 1 Whole Blood Conc.,"[2]; 700 mg/kg RE-024-02 by PO, 0.083 hr, LLOQ 1.6 nM, 700 mg/kg",433.8 nM and 5.9 nM and 1640.7 nM and 197.2 nM
same,Compound 1 Whole Blood Conc.,"[2]; 700 mg/kg RE-024-02 by PO, 0.167 hr, LLOQ 0.6 ng/mL, 700 mg/kg",636 ng/mL and 235.8 ng/mL and 165 ng/mL and 720 ng/mL
